Values of other authors as cited in patent publication US7834258B2, “Dimer of chimeric recombinant binding domain-functional group fusion formed via disulfide-bond-bridge and the processes for producing the same” (priority 2003, dated 2010).

Tested on: H2981 human lung adenocarcinoma cells

Structure (SMILES) | IC50 (H2981 human lung adenocarcinoma cells, read-out: ID50 (the source's name)) | cytotoxicity (H2981 cells, 200 uM concentration)
O=c1[nH]cc(F)c(=O)[nH]1 [5-FU, 5-Fluorouracil] | 20 µM | –
Nc1nc(=O)[nH]cc1F [5-FC, 5-Fluorocytosine] | – | no effect
